Measured values from the supplement of paper PMC13380429.

What was measured:
Settings in all cases: 72 h
HepG2 [1] = assay: cell viability relative to DMSO; higher = less toxic
Calu-3 [2] = assay: as above
U2OS [3] = assay: as above
Vero E6 [4] = assay: as above
Caco-2 [5] = assay: as above
HepG2 [6] = assay: relative viability EC50 (midpoint between 100% and the lowest measured viability); higher = less toxic
Calu-3 [7] = assay: as above
U2OS [8] = assay: as above
Vero E6 [9] = assay: as above
Caco-2 [10] = assay: as above
HepG2 [11] = assay: drug sensitivity score (DSS) for viability; higher = more toxic; extreme values may be limits of the assay
Calu-3 [12] = assay: as above
U2OS [13] = assay: as above
Vero E6 [14] = assay: as above
Caco-2 [15] = assay: as above

Structure (SMILES) | cell viability (HepG2 [1]; 1 nM) [%] | cell viability (HepG2 [1]; 10 nM) [%] | cell viability (HepG2 [1]; 100 nM) [%] | cell viability (HepG2 [1]; 1000 nM) [%] | cell viability (HepG2 [1]; 10000 nM) [%] | cell viability (Calu-3 [2]; 1 nM) [%] | cell viability (Calu-3 [2]; 10 nM) [%] | cell viability (Calu-3 [2]; 100 nM) [%] | cell viability (Calu-3 [2]; 1000 nM) [%] | cell viability (Calu-3 [2]; 10000 nM) [%] | cell viability (U2OS [3]; 1 nM) [%] | cell viability (U2OS [3]; 10 nM) [%] | cell viability (U2OS [3]; 100 nM) [%] | cell viability (U2OS [3]; 1000 nM) [%] | cell viability (U2OS [3]; 10000 nM) [%] | cell viability (Vero E6 [4]; 1 nM) [%] | cell viability (Vero E6 [4]; 10 nM) [%] | cell viability (Vero E6 [4]; 100 nM) [%] | cell viability (Vero E6 [4]; 1000 nM) [%] | cell viability (Vero E6 [4]; 10000 nM) [%] | cell viability (Caco-2 [5]; 1 nM) [%] | cell viability (Caco-2 [5]; 10 nM) [%] | cell viability (Caco-2 [5]; 100 nM) [%] | cell viability (Caco-2 [5]; 1000 nM) [%] | cell viability (Caco-2 [5]; 10000 nM) [%] | relative viability EC50 (HepG2 [6]) [µM] | relative viability EC50 (Calu-3 [7]) [µM] | relative viability EC50 (U2OS [8]) [µM] | relative viability EC50 (Vero E6 [9]) [µM] | relative viability EC50 (Caco-2 [10]) [µM] | drug sensitivity score (HepG2 [11]) | drug sensitivity score (Calu-3 [12]) | drug sensitivity score (U2OS [13]) | drug sensitivity score (Vero E6 [14]) | drug sensitivity score (Caco-2 [15])
CC(C)Oc1ccc(-c2nc(-c3cccc4c3CC[C@H]4NCCC(=O)O)no2)cc1C#N [RP-001] | 96.9 | 97.6 | 94.2 | 104 | 110 | 95.9 | 99.8 | 87.5 | 101 | 102 | 102 | 95.1 | 103 | 106 | 112 | 95 | 97.7 | 90.2 | 101 | 104 | 95 | 94.7 | 94.1 | 95.7 | 98.2 | > 10 | > 10 | > 10 | > 10 | > 10 | 0 | 0 | 0 | 0 | 0
CCCCCCCCCCCCCCCCCCN(CCCCCCCCCCCCCCCCCC)CCCN(CCO)CCO [avridine] | 109 | 98.1 | 98 | 106 | 108 | 91.5 | 101 | 101 | 95.7 | 108 | 95.7 | 101 | 98.9 | 104 | 100 | 104 | 101 | 106 | 98.5 | 102 | 106 | 97 | 90.4 | 105 | 146 | > 10 | > 10 | > 10 | > 10 | > 10 | 0 | 0 | 0 | 0 | 0
CC(C)[N+](C)(CCC(C(N)=O)(c1ccccc1)c1ccccc1)C(C)C [isopropamide-iodide] | 98.1 | 108 | 93.5 | 100 | 102 | 97.2 | 90.1 | 96.2 | 94.1 | 87.1 | 104 | 99.8 | 103 | 98.4 | 100 | 102 | 104 | 101 | 99.4 | 98.6 | 102 | 94.2 | 98.1 | 93.9 | 101 | > 10 | > 10 | > 10 | > 10 | > 10 | 0 | 0 | 0 | 0 | 0
CCS(=O)(=O)N(C)[C@@H]1c2cc(C#N)ccc2OC(C)(C)[C@H]1O.CCS(=O)(=O)N(C)[C@H]1c2cc(C#N)ccc2OC(C)(C)[C@@H]1O (racemic) [chromanol-(+/-)] | 106 | 105 | 100 | 96.7 | 94.6 | 103 | 99.8 | 92.5 | 102 | 97.5 | 100 | 96.9 | 102 | 96.2 | 102 | 101 | 102 | 101 | 103 | 95.6 | 90.9 | 89.9 | 100 | 106 | 93.5 | > 10 | > 10 | > 10 | > 10 | > 10 | 0 | 0 | 0 | 0 | 0
CC[C@@]1(O)C(=O)OCc2c1cc1n(c2=O)Cc2cc3c(CN(C)C)c(O)ccc3nc2-1 [topotecan] | 110 | 70.3 | 48.6 | 18.8 | 1.4 | 111 | 102 | 77.3 | 47.2 | 20.1 | 101 | 107 | 97.9 | 60.6 | 5.9 | 102 | 97.3 | 95.1 | 65.1 | 39.8 | 97.7 | 92.8 | 83.3 | 58.6 | 16.2 | 0.0757 | 0.38 | 1.16 | 0.756 | 0.748 | 23.6 | 12.6 | 10.2 | 7.5 | 10.4
COc1ccc2cc(CCC(C)=O)ccc2c1 [nabumetone] | 99.8 | 97.8 | 105 | 90.8 | 95.8 | 98.2 | 90.6 | 86.7 | 106 | 95.4 | 98.5 | 95.2 | 99.9 | 93.3 | 101 | 101 | 104 | 101 | 93.8 | 88.1 | 111 | 90.4 | 89.2 | 97.4 | 94.5 | > 10 | > 10 | > 10 | > 10 | > 10 | 0 | 0 | 0 | 0.3 | 0
CC(=O)c1ccc2c(c1)N(CCCN(C)C)c1ccccc1S2 [acepromazine] | 98.3 | 96.4 | 101 | 91.9 | 94.7 | 111 | 102 | 92.9 | 96.1 | 83.5 | 101 | 95 | 100 | 93.9 | 95.7 | 101 | 101 | 99.4 | 99.4 | 89.2 | 104 | 93.1 | 99.6 | 86.4 | 102 | > 10 | > 10 | > 10 | > 10 | > 10 | 0 | 0.3 | 0 | 0 | 0
CC(Cc1ccccc1)(NC(=O)CN)c1ccccc1 (stereo not given) [remacemide] | 99.4 | 96.1 | 100 | 94.3 | 104 | 102 | 93.6 | 92.5 | 98.6 | 90.8 | 98.6 | 94.7 | 99.6 | 93.6 | 94 | 99.7 | 101 | 102 | 96.2 | 99.3 | 99.6 | 92.8 | 100 | 91.5 | 102 | > 10 | > 10 | > 10 | > 10 | > 10 | 0 | 0 | 0 | 0 | 0
COc1cc(N2CCC(N)CC2)ccc1Nc1ncc(Cl)c(-c2c[nH]c3ccccc23)n1 [AZD3463] | 102 | 102 | 78.1 | 41.6 | 12.7 | 97.2 | 88.9 | 95.1 | 81.8 | 9.4 | 93.5 | 101 | 95.1 | 69.2 | 2.6 | 104 | 100 | 102 | 87.1 | 4.5 | 103 | 98.2 | 99.6 | 64.3 | 34.9 | 0.402 | 1.73 | 1.39 | 2.08 | 0.923 | 13.6 | 8 | 9.6 | 7.4 | 8
FC(F)(F)c1ccc(N2CCNCC2)nc1Cl | 108 | 96.2 | 92 | 106 | 104 | 96.1 | 105 | 93.7 | 106 | 107 | 97.4 | 99.9 | 95.2 | 100 | 92.7 | 101 | 98 | 95.9 | 95.6 | 95.2 | 101 | 98.5 | 107 | 104 | 96.4 | > 10 | > 10 | > 10 | > 10 | > 10 | 0 | 0 | 0 | 0 | 0
Nc1nc(F)nc2c1ncn2[C@@H]1O[C@H](COP(=O)(O)O)[C@@H](O)[C@@H]1O [fludarabine-phosphate] | 90.9 | 85.3 | 94.7 | 98.5 | 77.7 | 97.1 | 86.8 | 98.3 | 92.9 | 89.2 | 103 | 105 | 97.4 | 99.7 | 104 | 104 | 105 | 101 | 101 | 97.6 | 94.5 | 106 | 98.6 | 96.9 | 101 | > 10 | > 10 | > 10 | > 10 | > 10 | 0 | 0 | 0 | 0 | 0
C[C@@H]1c2ccccc2CN1CC1=NCCN1 (racemic) | 100 | 86.9 | 109 | 116 | 116 | 107 | 96.5 | 102 | 108 | 114 | 97.4 | 94.8 | 101 | 96.3 | 104 | 95.9 | 97.8 | 95.4 | 92.9 | 102 | 100 | 92.4 | 89.9 | 100 | 121 | > 10 | > 10 | > 10 | > 10 | > 10 | 0 | 0 | 0 | 0 | 0
